Among the data in patent publication US20250320213A1, “Nitrogen-Containing Heterocyclic Compounds” (Pfizer Inc., priority 2024, published 2025) are IC50 and EC50 values, retold here.

As usually defined, the IC50 is the concentration needed to halve the response being measured. Read a high IC50 as weaker potency in that assay. In general, EC50 refers to the concentration at which the effect is half-maximal.

Each structure is given as a SMILES string. Where two headings read alike, the source gives them in different places.

For experiment [1], the system named is CCL17 secretion in peripheral human whole blood. Kind of experiment: Human Whole Blood (HWB) CCL17 TR-FRET Assay (IL-13 stimulated CCL17 secretion). In kind it is cell-based. The essentials: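 Heparin-anticoagulated human blood; cpd 11-pt 3-fold dilution, duplicate, 2 h 37 °C preinc; IL-13 10 ng/mL final, 48 h 37 °C; spin, serum CCL17 by TR-FRET ELISA, 16 h RT, 665/615 ratio; IC50.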
Background: TR-FRET usually uses a lanthanide donor and a delayed reading to cut background.

A further experiment deals with T1, STAT6 (Homo sapiens, UniProt P42226).
T1 construct: stably transfected HaCaT keratinocyte cell line, which expresses NanoLuc luciferase reporter gene under the transcriptional control of the STAT6 responsive promoter; endogenous in cells; host or cells: HaCaT keratinocyte reporter cell line (stably transfected with a NanoLuc reporter)
T1 sequence (P42226 1-847): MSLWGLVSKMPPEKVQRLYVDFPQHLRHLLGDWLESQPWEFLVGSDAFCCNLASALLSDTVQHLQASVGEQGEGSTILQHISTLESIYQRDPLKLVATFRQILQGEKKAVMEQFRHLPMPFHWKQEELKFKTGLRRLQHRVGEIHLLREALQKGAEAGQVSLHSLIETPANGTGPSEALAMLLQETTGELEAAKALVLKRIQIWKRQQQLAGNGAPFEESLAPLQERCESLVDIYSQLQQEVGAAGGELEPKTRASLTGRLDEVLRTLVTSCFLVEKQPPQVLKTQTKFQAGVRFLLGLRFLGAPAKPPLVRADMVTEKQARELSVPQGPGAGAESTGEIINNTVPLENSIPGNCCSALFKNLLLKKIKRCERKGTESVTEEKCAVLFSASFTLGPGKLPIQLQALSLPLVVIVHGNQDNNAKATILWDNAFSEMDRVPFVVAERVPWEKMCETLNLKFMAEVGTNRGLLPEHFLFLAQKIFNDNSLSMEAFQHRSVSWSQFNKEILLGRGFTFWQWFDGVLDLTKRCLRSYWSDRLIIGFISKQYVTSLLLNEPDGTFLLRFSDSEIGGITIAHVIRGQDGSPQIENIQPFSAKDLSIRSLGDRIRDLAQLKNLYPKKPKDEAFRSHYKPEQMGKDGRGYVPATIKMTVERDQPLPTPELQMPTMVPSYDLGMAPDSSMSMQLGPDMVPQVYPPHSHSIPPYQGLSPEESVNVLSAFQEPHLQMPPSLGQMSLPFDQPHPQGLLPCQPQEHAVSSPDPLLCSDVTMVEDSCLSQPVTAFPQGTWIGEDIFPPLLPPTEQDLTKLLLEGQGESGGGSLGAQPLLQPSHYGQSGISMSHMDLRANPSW
Kind of experiment: STAT6 Reporter Luciferase Assay (IL-13 stimulated HaCaT keratinocyte NanoLuc reporter cells). The experiment is classed as cell-based. The following applies: read-out: Reporter EC50. The essentials: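 HaCaT IL-13Ra2-promoter NanoLuc reporter; cpd 2 h 37 °C in DMEM/2% HI FBS; IL-13 0.12 nM final, 4 h; Nano-Glo luminescence.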

[2] abbreviates: STAT6 NanoLuc luciferase reporter, IL-13 stimulated HaCaT keratinocyte cells.
[3] abbreviates: Homo sapiens, 48 h, inhibition of CCL17 secretion in human whole blood, 10 ng/mL IL13, 48 hours.
Where [4] appears, read: human whole blood, IL-13 stimulated, 48 hours.
Setting [5] is: IL-13 stimulated HaCaT STAT6 NanoLuc reporter cells.
[6] abbreviates: Homo sapiens, 48 h, human whole blood, IL-13 stimulated.

For the molecule `CC(C)n1nc(C(=O)NCc2ccc(-c3ncc[nH]3)cc2)c2c1C(C(F)(F)F)CN(c1ccc(C(=O)N(C)C)cn1)C2` (single isomer, unassigned) [Example 124, rel-(R or S)-N-(4-(1H-imidazol-2-yl)benzyl)-5-(5-(dimethylcarbamoyl)pyridin-2-yl)-1-isopropyl-7-(trifluoromethyl)-4,5,6,7-tetrahydro-1H-pyrazolo[4,3-c]pyridine-3-carboxamide], the IC50 in experiment [1] (inhibition of CCL17 secretion in human whole blood, 10 ng/mL IL13, 48 hours) came out at 0.005 µM. Further, the concentration for a half-maximal effect (EC50) on STAT6 (setting [2]) was 0.0003 µM.
`CC(C)n1nc(C(=O)NCc2ccc(NC(=O)N(C)C)cc2)c2c1[C@@H](C)CN(c1ccc(C(=O)N(C)C)cn1)C2` (single isomer, unassigned) [Example 128]: 0.003 µM corresponded to half-maximal inhibition in experiment [1] (setting [3]) (IC50). On STAT6 (setting [2]), the 50% effective concentration (EC50) turned out to be 0.0003 µM.
Taken in the same sequence, the figures for `CCC1CN(c2ccc(C(=O)N(C)C)cn2)Cc2c(C(=O)NCc3ccc(NC(=O)N(C)C)cc3)nc(C)n21` (single isomer, unassigned) [Example 131, rel-(R or S)-7-(5-(dimethylcarbamoyl)pyridin-2-yl)-N-(4-(3,3-dimethylureido)benzyl)-5-ethyl-3-methyl-5,6,7,8-tetrahydroimidazo[1,5-a]pyrazine-1-carboxamide] were 0.256 µM and 0.103 µM.
Regarding `CN(C)C(=O)Nc1ccc(CNC(=O)c2nn(C3CCOC3)c3c2CN(c2ccc(C(=O)N(C)C)cn2)CC3)cc1` (single isomer, unassigned) [Example 190, rel-(R or S)-5-(5-(dimethylcarbamoyl)pyridin-2-yl)-N-(4-(3,3-dimethylureido)benzyl)-1-(tetrahydrofuran-3-yl)-4,5,6,7-tetrahydro-1H-pyrazolo[4,3-c]pyridine-3-carboxamide], the IC50 in experiment [1] (setting [4]) is 0.038 µM. Besides, at STAT6 (setting [5]), the EC50 was 0.02 µM.
For `CN(C)C(=O)Nc1ccc(CNC(=O)c2nn(C3CCOC3)c3c2CN(c2ccc(C(=O)N(C)C)cn2)CC3)cc1` (single isomer, unassigned) [Example 191, rel-(R or S)-5-(5-(dimethylcarbamoyl)pyridin-2-yl)-N-(4-(3,3-dimethylureido)benzyl)-1-(tetrahydrofuran-3-yl)-4,5,6,7-tetrahydro-1H-pyrazolo[4,3-c]pyridine-3-carboxamide], in that order: 0.126 µM and 0.032 µM.
For `CC1CN(c2ccc(-c3nccn3C)cn2)Cc2c(C(=O)NCc3ccc(NC(=O)N(C)C)cc3)nn(C)c21` (single isomer, unassigned) [Example 203, rel-(R or S)-N-(4-(3,3-dimethylureido)benzyl)-1,7-dimethyl-5-(5-(1-methyl-1H-imidazol-2-yl)pyridin-2-yl)-4,5,6,7-tetrahydro-1H-pyrazolo[4,3-c]pyridine-3-carboxamide], in experiment [1] (setting [4]), the IC50 is 0.016 µM. The EC50 at STAT6 (setting [5]) came out at 0.001 µM.
For `CC1CN(c2ccc(-c3nccn3C)cn2)Cc2c(C(=O)NCc3ccc(NC(=O)N(C)C)cc3)nn(C)c21` (single isomer, unassigned) [Example 204, rel-(R or S)-N-(4-(3,3-dimethylureido)benzyl)-1,7-dimethyl-5-(5-(1-methyl-1H-imidazol-2-yl)pyridin-2-yl)-4,5,6,7-tetrahydro-1H-pyrazolo[4,3-c]pyridine-3-carboxamide], in that order: 0.246 µM and 0.016 µM.
In experiment [1] (setting [4]), `CCn1nc(C(=O)NCc2ccc(NC(=O)N(C)C)cc2)c2c1[C@H]1CC[C@H]1N(c1ccc(C(=O)N(C)C)cn1)C2` (single isomer, unassigned) [Example 230] yielded an IC50 of 0.277 µM. Also, the EC50 at STAT6 (setting [5]) amounted to 0.014 µM.
In turn, `CCn1nc(C(=O)NCc2ccc(NC(=O)N(C)C)cc2)c2c1[C@H]1CC[C@H]1N(c1ccc(C(=O)N(C)C)cn1)C2` (single isomer, unassigned) [Example 231] yielded an IC50 in experiment [1] (setting [4]) of 0.023 µM. In addition, at STAT6 (setting [5]), the EC50 stood at 0.002 µM.
Taken in the same sequence, the figures for `CCc1nc(C(=O)NCc2ccc(NC(=O)N(C)C)cc2)c2n1C(C)CN(c1ccc(C(=O)N(C)C)cn1)C2` (single isomer, unassigned) [Example 232, rel-(R or S)-7-(5-(dimethylcarbamoyl)pyridin-2-yl)-N-(4-(3,3-dimethylureido)benzyl)-3-ethyl-5-methyl-5,6,7,8-tetrahydroimidazo[1,5-a]pyrazine-1-carboxamide] were 0.005 µM and 0.002 µM.
Taken in the same sequence, the figures for `CCc1nc(C(=O)NCc2ccc(NC(=O)N(C)C)cc2)c2n1C(C)CN(c1ccc(C(=O)N(C)C)cn1)C2` (single isomer, unassigned) [Example 233, rel-(R or S)-7-(5-(dimethylcarbamoyl)pyridin-2-yl)-N-(4-(3,3-dimethylureido)benzyl)-3-ethyl-5-methyl-5,6,7,8-tetrahydroimidazo[1,5-a]pyrazine-1-carboxamide] were 0.078 µM and 0.042 µM.
Molecule `CCC(C)n1nc(C(=O)NCc2ccc(NC(=O)N(C)C)cc2)c2c1CCN(c1ccc(C(=O)N(C)C)cn1)C2` (single isomer, unassigned) [Example 234, rel-(R or S)-1-(sec-butyl)-5-(5-(dimethylcarbamoyl)pyridin-2-yl)-N-(4-(3,3-dimethylureido)benzyl)-4,5,6,7-tetrahydro-1H-pyrazolo[4,3-c]pyridine-3-carboxamide] gave an IC50 in experiment [1] (setting [6]) of 0.08 µM. The half-maximal effective concentration (EC50) at STAT6 (setting [5]) is 0.02 µM.
In the case of `CCC(C)n1nc(C(=O)NCc2ccc(NC(=O)N(C)C)cc2)c2c1CCN(c1ccc(C(=O)N(C)C)cn1)C2` (single isomer, unassigned) [Example 235, rel-(R or S)-1-(sec-butyl)-5-(5-(dimethylcarbamoyl)pyridin-2-yl)-N-(4-(3,3-dimethylureido)benzyl)-4,5,6,7-tetrahydro-1H-pyrazolo[4,3-c]pyridine-3-carboxamide], in experiment [1] (setting [4]), the IC50 is 0.085 µM. The EC50 at STAT6 (setting [5]) worked out at 0.015 µM.
In turn, `CC(C1CC1)n1nc(C(=O)NCc2ccc(NC(=O)N(C)C)cc2)c2c1CCN(c1ccc(C(=O)N(C)C)cn1)C2` (single isomer, unassigned) [Example 237, rel-(R or S)-1-(1-cyclopropylethyl)-5-(5-(dimethylcarbamoyl)pyridin-2-yl)-N-(4-(3,3-dimethylureido)benzyl)-4,5,6,7-tetrahydro-1H-pyrazolo[4,3-c]pyridine-3-carboxamide] returned an IC50 in experiment [1] (setting [6]) of 0.083 µM. For the same molecule, at STAT6 (setting [5]), the 50% effective concentration (EC50) is 0.007 µM.
In experiment [1] (setting [4]), `CCn1nc(C(=O)NCc2ccc(NC(=O)N(C)C)cc2)c2c1CC(C(F)(F)F)N(c1ccc(C(=O)N(C)C)cn1)C2` (single isomer, unassigned) [Example 250, rel-(R or S)-5-(5-(dimethylcarbamoyl)pyridin-2-yl)-N-(4-(3,3-dimethylureido)benzyl)-1-ethyl-6-(trifluoromethyl)-4,5,6,7-tetrahydro-1H-pyrazolo[4,3-c]pyridine-3-carboxamide] yielded an IC50 of 0.028 µM. The EC50 at STAT6 (setting [5]) stood at 0.002 µM.
In experiment [1] (setting [4]), `CCn1nc(C(=O)NCc2ccc(NC(=O)N(C)C)cc2)c2c1CC(C(F)(F)F)N(c1ccc(C(=O)N(C)C)cn1)C2` (single isomer, unassigned) [Example 251, rel-(R or S)-5-(5-(dimethylcarbamoyl)pyridin-2-yl)-N-(4-(3,3-dimethylureido)benzyl)-1-ethyl-6-(trifluoromethyl)-4,5,6,7-tetrahydro-1H-pyrazolo[4,3-c]pyridine-3-carboxamide] came in with an IC50 of 0.08 µM. Besides, the 50% effective concentration (EC50) at STAT6 (setting [5]) was determined as 0.01 µM.
